Measurements taken from publication PMC7385619, “A triple action CDK4/6-PI3K-BET inhibitor with augmented cancer cell cytotoxicity” (Cell Discovery, 2020).
Where two headings read alike, the source gives them in different places.

Tests used:
Test in all cases: KINOMEscan assay (Eurofins DiscoverX)
Assay type in all cases: binding
kinome (kinase panel) [1] = target: T1, kinome (kinase panel) (Homo sapiens, UniProt O15530); conditions: PDPK1; 1000 nM; read-out: Percent Control
T1 construct: purchased Eurofins DiscoverX

kinome (kinase panel) [2] = target: T2, kinome (kinase panel) (Homo sapiens, UniProt Q13470); conditions: TNK1; 1000 nM; read-out: Percent Control
T2 construct: purchased Eurofins DiscoverX

kinome (kinase panel) [3] = target: T3, kinome (kinase panel) (Homo sapiens, UniProt O43353); conditions: RIPK2; 1000 nM; read-out: Percent Control
T3 construct: purchased Eurofins DiscoverX

kinome (kinase panel) [4] = target: T4, kinome (kinase panel) (Homo sapiens, UniProt O60331); conditions: PIP5K1C; 1000 nM; read-out: Percent Control
T4 construct: purchased Eurofins DiscoverX

kinome (kinase panel) [5] = target: T5, kinome (kinase panel) (Homo sapiens, UniProt P07949, V804L); conditions: read-out: Percent Control
T5 construct: purchased Eurofins DiscoverX

kinome (kinase panel) [6] = target: T6, kinome (kinase panel) (Homo sapiens, UniProt P12931); conditions: SRC; 1000 nM; read-out: Percent Control
T6 construct: purchased Eurofins DiscoverX

kinome (kinase panel) [7] = target: T7, kinome (kinase panel) (Homo sapiens, UniProt Q13131); conditions: AMPK-alpha1 (Entrez PRKAA1); 1000 nM; read-out: Percent Control
T7 construct: purchased Eurofins DiscoverX

kinome (kinase panel) [8] = target: T8, kinome (kinase panel) (Homo sapiens, UniProt P00519, E255K); conditions: read-out: Percent Control
T8 construct: purchased Eurofins DiscoverX

kinome (kinase panel) [9] = target: T9, kinome (kinase panel) (Homo sapiens, UniProt P27361); conditions: ERK1 (Entrez MAPK3); 1000 nM; read-out: Percent Control
T9 construct: purchased Eurofins DiscoverX

kinome (kinase panel) [10] = target: T10, kinome (kinase panel) (Homo sapiens, UniProt Q13153); conditions: PAK1; 1000 nM; read-out: Percent Control
T10 construct: purchased Eurofins DiscoverX

kinome (kinase panel) [11] = target: T11, kinome (kinase panel) (Homo sapiens, UniProt Q9UF33); conditions: EPHA6; 1000 nM; read-out: Percent Control
T11 construct: purchased Eurofins DiscoverX

kinome (kinase panel) [12] = target: T12, kinome (kinase panel) (Homo sapiens, UniProt P20794); conditions: MAK; 1000 nM; read-out: Percent Control
T12 construct: purchased Eurofins DiscoverX

kinome (kinase panel) [13] = target: T13, kinome (kinase panel) (Homo sapiens, UniProt O75676); conditions: 1000 nM, read-out: Percent Control
T13 construct: purchased Eurofins DiscoverX

kinome (kinase panel) [14] = target: T14, kinome (kinase panel) (Homo sapiens, UniProt P00519, M351T); conditions: read-out: Percent Control
T14 construct: purchased Eurofins DiscoverX

kinome (kinase panel) [15] = target: T15, kinome (kinase panel) (Homo sapiens, UniProt Q6PHR2); conditions: ULK3; 1000 nM; read-out: Percent Control
T15 construct: purchased Eurofins DiscoverX

kinome (kinase panel) [16] = target: T16, kinome (kinase panel) (Homo sapiens, UniProt Q9UPZ9); conditions: ICK; 1000 nM; read-out: Percent Control
T16 construct: purchased Eurofins DiscoverX

kinome (kinase panel) [17] = target: T17, kinome (kinase panel) (Homo sapiens, UniProt P35590); conditions: TIE1; 1000 nM; read-out: Percent Control
T17 construct: purchased Eurofins DiscoverX

kinome (kinase panel) [18] = target: T18, kinome (kinase panel) (Homo sapiens, UniProt Q8N5S9); conditions: CAMKK1; 1000 nM; read-out: Percent Control
T18 construct: purchased Eurofins DiscoverX

kinome (kinase panel) [19] = target: T19, kinome (kinase panel) (Homo sapiens, UniProt P07949, V804M); conditions: read-out: Percent Control
T19 construct: purchased Eurofins DiscoverX

kinome (kinase panel) [20] = target: T20, kinome (kinase panel) (Homo sapiens, UniProt Q15835); conditions: GRK1; 1000 nM; read-out: Percent Control
T20 construct: purchased Eurofins DiscoverX

kinome (kinase panel) [21] = target: T21, kinome (kinase panel) (Homo sapiens, UniProt Q8NI60); conditions: ADCK3 (Entrez CABC1); 1000 nM; read-out: Percent Control
T21 construct: purchased Eurofins DiscoverX

kinome (kinase panel) [22] = target: T22, kinome (kinase panel) (Homo sapiens, UniProt P50750); conditions: CDK9; 1000 nM; read-out: Percent Control
T22 construct: purchased Eurofins DiscoverX

kinome (kinase panel) [23] = target: T23, kinome (kinase panel) (Homo sapiens, UniProt P51955); conditions: NEK2; 1000 nM; read-out: Percent Control
T23 construct: purchased Eurofins DiscoverX

kinome (kinase panel) [24] = target: T24, kinome (kinase panel) (Homo sapiens, UniProt Q9BYT3); conditions: STK33; 1000 nM; read-out: Percent Control
T24 construct: purchased Eurofins DiscoverX

kinome (kinase panel) [25] = target: T25, kinome (kinase panel) (Homo sapiens, UniProt Q9Y2H9); conditions: MAST1; 1000 nM; read-out: Percent Control
T25 construct: purchased Eurofins DiscoverX

kinome (kinase panel) [26] = target: T26, kinome (kinase panel) (Homo sapiens, UniProt O14757); conditions: CHEK1; 1000 nM; read-out: Percent Control
T26 construct: purchased Eurofins DiscoverX

kinome (kinase panel) [27] = target: T27, kinome (kinase panel) (Homo sapiens, UniProt P49137); conditions: MAPKAPK2; 1000 nM; read-out: Percent Control
T27 construct: purchased Eurofins DiscoverX

kinome (kinase panel) [28] = target: T28, kinome (kinase panel) (Homo sapiens, UniProt Q16659); conditions: ERK3 (Entrez MAPK6); 1000 nM; read-out: Percent Control
T28 construct: purchased Eurofins DiscoverX

kinome (kinase panel) [29] = target: T29, kinome (kinase panel) (Homo sapiens, UniProt P21709); conditions: EPHA1; 1000 nM; read-out: Percent Control
T29 construct: purchased Eurofins DiscoverX

kinome (kinase panel) [30] = target: T30, kinome (kinase panel) (Homo sapiens, UniProt O00750); conditions: PIK3C2B; 1000 nM; read-out: Percent Control
T30 construct: purchased Eurofins DiscoverX

kinome (kinase panel) [31] = target: T31, kinome (kinase panel) (Homo sapiens, UniProt Q8TD19); conditions: NEK9; 1000 nM; read-out: Percent Control
T31 construct: purchased Eurofins DiscoverX

kinome (kinase panel) [32] = target: T32, kinome (kinase panel) (Homo sapiens, UniProt Q08345); conditions: DDR1; 1000 nM; read-out: Percent Control
T32 construct: purchased Eurofins DiscoverX

kinome (kinase panel) [33] = target: T33, kinome (kinase panel) (Homo sapiens, UniProt Q16816); conditions: PHKG1; 1000 nM; read-out: Percent Control
T33 construct: purchased Eurofins DiscoverX
T33 sequence (Q16816 whole entry): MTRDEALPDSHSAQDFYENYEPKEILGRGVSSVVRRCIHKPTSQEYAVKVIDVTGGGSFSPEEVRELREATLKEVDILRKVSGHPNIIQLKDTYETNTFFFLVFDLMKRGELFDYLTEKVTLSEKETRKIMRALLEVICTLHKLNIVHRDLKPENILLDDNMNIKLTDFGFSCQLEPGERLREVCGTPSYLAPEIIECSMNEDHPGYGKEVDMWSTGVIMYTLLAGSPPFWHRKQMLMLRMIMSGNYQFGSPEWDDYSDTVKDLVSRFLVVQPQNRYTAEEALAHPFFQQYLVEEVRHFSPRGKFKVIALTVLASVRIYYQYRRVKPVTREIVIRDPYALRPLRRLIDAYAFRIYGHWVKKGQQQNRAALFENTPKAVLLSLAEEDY

T13 sequence (O75676 whole entry): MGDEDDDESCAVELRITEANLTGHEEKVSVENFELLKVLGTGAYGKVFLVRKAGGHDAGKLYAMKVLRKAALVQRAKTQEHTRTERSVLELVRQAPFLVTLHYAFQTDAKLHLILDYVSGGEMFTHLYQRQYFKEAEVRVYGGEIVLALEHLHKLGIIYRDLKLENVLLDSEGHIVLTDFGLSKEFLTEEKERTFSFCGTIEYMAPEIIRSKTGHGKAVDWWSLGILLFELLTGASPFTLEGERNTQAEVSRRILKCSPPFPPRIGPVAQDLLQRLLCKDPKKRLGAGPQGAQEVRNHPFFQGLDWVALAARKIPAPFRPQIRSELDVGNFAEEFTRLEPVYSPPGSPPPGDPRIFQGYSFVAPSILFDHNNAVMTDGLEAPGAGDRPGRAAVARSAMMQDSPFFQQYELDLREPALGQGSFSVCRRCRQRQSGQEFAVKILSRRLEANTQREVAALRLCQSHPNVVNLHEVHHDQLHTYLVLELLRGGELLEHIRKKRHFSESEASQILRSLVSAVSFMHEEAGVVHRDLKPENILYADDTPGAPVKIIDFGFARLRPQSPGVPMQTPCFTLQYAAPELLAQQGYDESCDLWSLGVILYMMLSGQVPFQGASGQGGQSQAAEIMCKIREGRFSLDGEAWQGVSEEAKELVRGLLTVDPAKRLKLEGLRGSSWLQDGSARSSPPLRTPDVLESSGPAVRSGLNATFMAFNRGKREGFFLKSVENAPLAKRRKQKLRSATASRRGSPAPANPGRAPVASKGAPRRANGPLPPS
T30 sequence (O00750 whole entry): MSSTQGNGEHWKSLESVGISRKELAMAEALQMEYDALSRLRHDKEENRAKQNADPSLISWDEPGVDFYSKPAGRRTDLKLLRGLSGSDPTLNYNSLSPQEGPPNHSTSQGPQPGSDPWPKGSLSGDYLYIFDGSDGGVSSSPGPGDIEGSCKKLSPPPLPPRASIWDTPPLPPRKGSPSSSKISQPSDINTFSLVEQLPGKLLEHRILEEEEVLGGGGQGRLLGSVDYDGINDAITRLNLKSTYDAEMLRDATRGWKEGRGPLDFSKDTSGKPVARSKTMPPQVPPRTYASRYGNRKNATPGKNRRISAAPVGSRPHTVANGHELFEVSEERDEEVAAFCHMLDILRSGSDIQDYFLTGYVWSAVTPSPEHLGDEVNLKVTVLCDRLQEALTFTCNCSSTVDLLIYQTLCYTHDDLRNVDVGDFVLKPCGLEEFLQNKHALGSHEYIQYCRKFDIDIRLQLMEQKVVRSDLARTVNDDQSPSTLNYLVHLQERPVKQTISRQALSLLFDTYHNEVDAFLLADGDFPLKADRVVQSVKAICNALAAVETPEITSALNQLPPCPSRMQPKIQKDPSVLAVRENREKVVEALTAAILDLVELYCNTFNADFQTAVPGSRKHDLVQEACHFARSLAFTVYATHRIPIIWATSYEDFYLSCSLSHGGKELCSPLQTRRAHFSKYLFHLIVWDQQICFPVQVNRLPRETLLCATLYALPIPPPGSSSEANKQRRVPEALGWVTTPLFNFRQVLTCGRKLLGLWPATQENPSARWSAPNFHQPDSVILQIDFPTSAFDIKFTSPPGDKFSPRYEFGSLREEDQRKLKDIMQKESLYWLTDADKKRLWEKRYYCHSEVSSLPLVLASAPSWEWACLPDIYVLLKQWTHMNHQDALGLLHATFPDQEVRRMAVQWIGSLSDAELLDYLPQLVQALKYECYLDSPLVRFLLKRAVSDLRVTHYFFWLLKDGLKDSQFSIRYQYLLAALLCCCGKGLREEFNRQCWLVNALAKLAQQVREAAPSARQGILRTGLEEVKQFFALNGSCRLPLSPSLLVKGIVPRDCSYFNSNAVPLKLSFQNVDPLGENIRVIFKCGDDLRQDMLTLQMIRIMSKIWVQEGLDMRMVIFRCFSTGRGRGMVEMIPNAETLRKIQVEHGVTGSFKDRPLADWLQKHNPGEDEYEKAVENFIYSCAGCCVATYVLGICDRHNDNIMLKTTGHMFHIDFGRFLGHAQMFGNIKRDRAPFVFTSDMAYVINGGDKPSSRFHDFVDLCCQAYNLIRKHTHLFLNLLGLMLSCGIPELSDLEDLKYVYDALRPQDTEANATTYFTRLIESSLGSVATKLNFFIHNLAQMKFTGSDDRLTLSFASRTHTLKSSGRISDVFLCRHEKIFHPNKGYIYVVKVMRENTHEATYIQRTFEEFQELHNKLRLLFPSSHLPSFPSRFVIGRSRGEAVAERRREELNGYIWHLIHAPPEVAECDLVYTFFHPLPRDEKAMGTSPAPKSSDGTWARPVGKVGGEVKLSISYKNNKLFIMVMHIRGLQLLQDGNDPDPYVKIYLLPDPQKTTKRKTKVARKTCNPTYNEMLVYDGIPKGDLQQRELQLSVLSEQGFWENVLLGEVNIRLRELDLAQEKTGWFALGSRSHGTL
T7 sequence (Q13131 whole entry): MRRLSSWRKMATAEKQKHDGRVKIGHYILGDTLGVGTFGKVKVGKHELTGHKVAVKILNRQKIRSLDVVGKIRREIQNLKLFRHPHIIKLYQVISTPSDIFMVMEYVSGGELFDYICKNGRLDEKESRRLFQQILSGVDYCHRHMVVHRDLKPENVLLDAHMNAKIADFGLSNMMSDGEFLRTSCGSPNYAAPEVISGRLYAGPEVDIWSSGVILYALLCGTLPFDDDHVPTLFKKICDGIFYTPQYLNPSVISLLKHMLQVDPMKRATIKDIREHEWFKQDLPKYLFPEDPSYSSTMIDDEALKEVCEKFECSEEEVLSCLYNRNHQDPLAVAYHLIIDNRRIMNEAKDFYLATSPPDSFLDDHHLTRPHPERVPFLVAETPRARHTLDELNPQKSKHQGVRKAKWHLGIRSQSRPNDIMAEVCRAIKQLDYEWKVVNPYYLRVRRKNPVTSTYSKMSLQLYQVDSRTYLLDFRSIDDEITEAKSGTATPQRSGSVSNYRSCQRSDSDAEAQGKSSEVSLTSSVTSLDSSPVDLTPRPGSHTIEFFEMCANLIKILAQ
T19 sequence (P07949 29-1114 V804M): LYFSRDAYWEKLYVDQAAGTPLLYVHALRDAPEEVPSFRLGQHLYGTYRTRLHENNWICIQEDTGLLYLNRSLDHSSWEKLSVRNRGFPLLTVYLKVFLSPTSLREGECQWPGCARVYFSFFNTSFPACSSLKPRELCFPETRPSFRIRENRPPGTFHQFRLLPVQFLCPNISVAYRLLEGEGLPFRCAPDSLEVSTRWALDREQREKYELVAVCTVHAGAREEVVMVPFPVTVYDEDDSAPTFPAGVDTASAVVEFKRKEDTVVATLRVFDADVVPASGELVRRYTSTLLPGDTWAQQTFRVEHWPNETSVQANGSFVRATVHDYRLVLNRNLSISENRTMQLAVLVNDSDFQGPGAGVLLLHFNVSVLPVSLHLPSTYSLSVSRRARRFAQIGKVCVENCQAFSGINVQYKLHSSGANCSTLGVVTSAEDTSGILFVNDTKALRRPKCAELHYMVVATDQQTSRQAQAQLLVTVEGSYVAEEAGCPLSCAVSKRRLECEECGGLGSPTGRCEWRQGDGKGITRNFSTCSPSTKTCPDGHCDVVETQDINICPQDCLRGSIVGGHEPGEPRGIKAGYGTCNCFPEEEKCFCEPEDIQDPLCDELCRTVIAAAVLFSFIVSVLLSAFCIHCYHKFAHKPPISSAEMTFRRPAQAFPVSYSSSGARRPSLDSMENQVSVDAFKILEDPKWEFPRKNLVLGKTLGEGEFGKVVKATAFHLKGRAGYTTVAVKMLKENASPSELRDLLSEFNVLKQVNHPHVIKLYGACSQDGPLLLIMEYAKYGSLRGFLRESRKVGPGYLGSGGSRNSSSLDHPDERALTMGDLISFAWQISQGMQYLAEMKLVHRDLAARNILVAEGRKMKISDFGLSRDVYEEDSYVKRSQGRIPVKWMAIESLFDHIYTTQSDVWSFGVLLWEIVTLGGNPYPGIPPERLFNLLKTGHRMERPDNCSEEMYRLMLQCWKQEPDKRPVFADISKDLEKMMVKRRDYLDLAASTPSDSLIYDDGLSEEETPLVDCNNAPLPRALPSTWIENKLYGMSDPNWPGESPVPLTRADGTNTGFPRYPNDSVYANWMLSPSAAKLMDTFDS
T12 sequence (P20794 whole entry): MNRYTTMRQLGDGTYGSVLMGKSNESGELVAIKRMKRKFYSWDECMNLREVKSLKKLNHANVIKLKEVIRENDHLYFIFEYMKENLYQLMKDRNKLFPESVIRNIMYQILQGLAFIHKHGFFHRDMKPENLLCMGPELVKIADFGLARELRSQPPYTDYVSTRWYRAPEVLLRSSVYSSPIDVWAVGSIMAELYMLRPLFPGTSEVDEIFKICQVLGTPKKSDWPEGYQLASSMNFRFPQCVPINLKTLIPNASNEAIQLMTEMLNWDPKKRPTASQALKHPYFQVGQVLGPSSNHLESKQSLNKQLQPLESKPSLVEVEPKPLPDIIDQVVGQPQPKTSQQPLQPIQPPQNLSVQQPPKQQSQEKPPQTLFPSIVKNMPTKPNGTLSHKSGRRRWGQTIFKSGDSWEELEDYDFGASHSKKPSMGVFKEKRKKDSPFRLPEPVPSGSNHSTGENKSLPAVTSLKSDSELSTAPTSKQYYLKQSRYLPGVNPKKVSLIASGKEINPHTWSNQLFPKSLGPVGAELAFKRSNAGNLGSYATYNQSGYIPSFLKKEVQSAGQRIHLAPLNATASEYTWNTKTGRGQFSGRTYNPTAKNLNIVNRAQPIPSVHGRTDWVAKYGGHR

With `CN(C)C(=O)c1cc2cnc(Nc3ccc(-c4csc5c(=O)cc(N6CCOCC6)oc45)cc3)nc2n1C1CCCC1` [SRX3177] the remaining binding at 1 µM (kinome (kinase panel) [1]) was 98%, the remaining binding at 1 µM (kinome (kinase panel) [2]) was 57% and the remaining binding at 1 µM (kinome (kinase panel) [3]) was 93%. For the same compound, the remaining binding at 1 µM (kinome (kinase panel) [4]) was 87%, the remaining binding at 1 µM (kinome (kinase panel) [5]) was 99% and the remaining binding at 1 µM (kinome (kinase panel) [6]) was 74%. It also gave a remaining binding at 1 µM (kinome (kinase panel) [7]) of 100%, a remaining binding at 1 µM (kinome (kinase panel) [8]) of 59% and a remaining binding at 1 µM (kinome (kinase panel) [9]) of 100%. It also gave a remaining binding at 1 µM (kinome (kinase panel) [10]) of 90%, a remaining binding at 1 µM (kinome (kinase panel) [11]) of 99% and a remaining binding at 1 µM (kinome (kinase panel) [12]) of 87%. It also gave a remaining binding at 1 µM (kinome (kinase panel) [13]; RPS6KA4(Kin.Dom.1-N-terminal)) of 100%, a remaining binding at 1 µM (kinome (kinase panel) [13]; RPS6KA4(Kin.Dom.2-C-terminal)) of 55% and a remaining binding at 1 µM (kinome (kinase panel) [14]) of 49%. It also gave a remaining binding at 1 µM (kinome (kinase panel) [15]) of 51%, a remaining binding at 1 µM (kinome (kinase panel) [16]) of 9.8% and a remaining binding at 1 µM (kinome (kinase panel) [17]) of 77%. The remaining binding at 1 µM (kinome (kinase panel) [18]) was 46%, the remaining binding at 1 µM (kinome (kinase panel) [19]) was 100% and the remaining binding at 1 µM (kinome (kinase panel) [20]) was 79%. For the same compound, the remaining binding at 1 µM (kinome (kinase panel) [21]) was 99%, the remaining binding at 1 µM (kinome (kinase panel) [22]) was 2.4% and the remaining binding at 1 µM (kinome (kinase panel) [23]) was 90%. For the same compound, the remaining binding at 1 µM (kinome (kinase panel) [24]) was 98%, the remaining binding at 1 µM (kinome (kinase panel) [25]) was 53% and the remaining binding at 1 µM (kinome (kinase panel) [26]) was 100%. The remaining binding at 1 µM (kinome (kinase panel) [27]) was 100%, the remaining binding at 1 µM (kinome (kinase panel) [28]) was 100% and the remaining binding at 1 µM (kinome (kinase panel) [29]) was 79%. The remaining binding at 1 µM (kinome (kinase panel) [30]) was 86%, the remaining binding at 1 µM (kinome (kinase panel) [31]) was 100% and the remaining binding at 1 µM (kinome (kinase panel) [32]) was 72%. The remaining binding at 1 µM (kinome (kinase panel) [33]) was 88%.
